From patent EP2910557A1, “Enantiopure tetrasubstituted pyrrolidines as scaffolds for proteasome inhibitors and medicinal applications thereof” (Ikerchem, S.L., priority 2014, dated 2015)

Legend:
[1] = target: T1, Human erythrocyte 20S proteasome (Homo sapiens, UniProt P28074); assay: In vitro enzymatic assay of proteasome inhibitory activity (Suc-Leu-Leu-Val-Tyr-AMC substrate); format: biochemical; details: for inhibition at 0.05 µM: Concentration 50 nM; for IC50: human erythrocyte 20S proteasome, 10 µM Suc-Leu-Leu-Val-Tyr-AMC, 37°C
T1 construct: Enzyme: Human erythrocyte 20S proteasome; from tissue; host or cells: human erythrocytes
Protocol: Example 20: In vitro enzymatic assay of proteasome inhibitory activity.
Substrate: Suc-Leu-Leu-Val-Tyr-AMC
Assay buffer: 250 mM HEPES, pH 7.5, 0.5 mM EDTA, 0.03% SDS, 0.05% Igepal CA-630.
Enzyme: Human erythrocyte 20S proteasome
In vitro proteasome inhibitory activity of the compounds of the invention is evaluated by spectrofluorimetric quantitation of AMC. Stock solutions of compounds of the invention are prepared in dimethyl sulphoxide (DMSO). Test compound and/or vehicle is preincubated with […] enzyme (human erythrocyte 20S proteasome) in modified HEPES buffer pH 7.5 and 1% final concentration of DMSO for 15 minutes at 37°C. The reaction is initiated by addition of 10 µM Suc-Leu-Leu-Val-Tyr-AMC for another 30 minutes incubation period at 37°C. Determination of the release of AMC is read spectrophotometrically (excitation, 380 nm; emission, 460 nm). IC50 values are determined by a non-linear, least squares regression analysis using MathlQTM (ID Business Solutions Ltd., UK).

143b = assay: Cancer cell growth inhibition, 72 h treatment; format: cell-based; details: Homo sapiens, Osteosarcoma 143b, Alamar Blue
Protocol: (§1) Cell culture-based assays were used to evaluate the ability of compounds of the invention to inhibit cancer cell growth.
(§2) Cells were obtained from the American Type Culture Collection (ATCC) and the European Collection of Cell Cultures. Cells were thawed in their appropriate media plus supplements (see table below). Cells were passaged at confluence by washing once in HBSS cation-free followed by a 3 minutes incubation with trypsin ([0.5 µg/ml]/EDTA [0.2 µg/ml]) (Gibco-BRL, 15400054) solution in HBSS at 37°C (except non-adherent cell lines - hematologic), and transferred to their appropriate media plus supplements. Prior to seeding at defined cell concentration, cells were recovered in medium, centrifuged, taken up in medium and counted.
(§3) All treatments were performed in triplicate. Experiments were carried out in 96-well cell culture plates (Cultek) and the cell lines seeded at the density mentioned in the table above and cultured at 37°C with 5% CO2. After 24h, media were supplemented by 100 µl/well of diluted test compound at variable final concentrations and incubated for 72 hours. Then, AlamarBlue® Reagent (Biosource DAL1100) was added to each well and incubated at 37°C for 4 hours. Relative fluorescent intensity that correlates with the number of living cells was read in a Cytofluor plate reader (Millipore) at 535/590 nm (Excitation/emission). After reading the AlamarBlue® signal, the hexosaminidase activitity was measured according to the following protocol: medium was removed and cells were washed once with PBS. 60 µl of substrate solution (p-nitrophenol-N-acetyl-beta-D-glucosaminide 7.5 mM [Sigma N-9376], sodium citrate 0.1 M, pH 5.0, 0.25% Triton X-1 00) was added to each well and incubated at 37°C for 1-2 hours; after this incubation time, a bright yellow colour appears; then, plates could be developed by adding 90 µl of developer solution (Glycine 50 mM, pH 10.4; EDTA 5 mM), and absorbance was recorded at 405 nm.
(§4) Note: In all cases assays were performed in Alamar Blue with the exception of those indicated (* = Hexosaminidase assay)

BxPC-3 = assay: Cancer cell growth inhibition, 72 h treatment; format: cell-based; details: Homo sapiens
Protocol: as §1, §2, §3, §4

CCRF-CEM = assay: Cancer cell growth inhibition, 72 h treatment; format: cell-based; details: Homo sapiens, Hematologic CCRF-CEM, Alamar Blue
Protocol: as §1, §2, §3, §4

LoVo = assay: Cancer cell growth inhibition, 72 h treatment; format: cell-based; details: Homo sapiens, Colon cancer LoVo, Alamar Blue
Protocol: as §1, §2, §3, §4

MCF-7 = assay: Cancer cell growth inhibition, 72 h treatment; format: cell-based; details: Homo sapiens, MCF7, Breast cancer MCF-7, Alamar Blue
Protocol: as §1, §2, §3, §4

NCI-H358 = assay: Cancer cell growth inhibition, 72 h treatment; format: cell-based; details: Homo sapiens, Lung cancer NCI-H358, Alamar Blue
Protocol: as §1, §2, §3, §4

PANC-1 = assay: Cancer cell growth inhibition, 72 h treatment; format: cell-based; details: Homo sapiens, Pancreatic cancer PANC-1, Alamar Blue
Protocol: as §1, §2, §3, §4

RWP-1 = assay: Cancer cell growth inhibition, 72 h treatment; format: cell-based
Protocol: as §1, §2, §3, §4

SK-BR-3 = assay: Cancer cell growth inhibition, 72 h treatment; format: cell-based; details: Homo sapiens
Protocol: as §1, §2, §3, §4

SK-HEP-1 = assay: Cancer cell growth inhibition, 72 h treatment; format: cell-based; details: Homo sapiens, SK-HEP1, Liver cancer SK-HEP-1, Alamar Blue
Protocol: as §1, §2, §3, §4

[2] = Pancreatic cancer BxPC-3, Hexosaminidase assay (*)
[3] = Pancreatic cancer RWP-1, Alamar Blue
[4] = Breast cancer SK-BR-3, Alamar Blue
[5] = Pancreatic cancer BxPC-3, Alamar Blue

SMILES | inhibition at 0.05 µM [1] | IC50 [1] | EC50 (143b) | EC50 (BxPC-3; [2]) | EC50 (CCRF-CEM) | EC50 (LoVo) | EC50 (MCF-7) | EC50 (NCI-H358) | EC50 (PANC-1) | EC50 (RWP-1; [3]) | EC50 (SK-BR-3; [4]) | EC50 (SK-HEP-1) | inhibition at 0.1 µM ([1]; Concentration 100 nM) | EC50 (BxPC-3; [5]) | EC50 (RWP-1; Pancreatic cancer RWP-1, Hexosaminidase assay (*)) | EC50 (SK-BR-3; Breast cancer SK-BR-3, Hexosaminidase assay (*)) | inhibition at 0.5 µM ([1]; Concentration 500 nM)
CC(C)C[C@H](NC(=O)[C@@H]1N[C@H](c2ccccc2)[C@@H]([N+](=O)[O-])[C@@H]1c1cccs1)B(O)O [Example 10, (R)-3-methyl-1-((2R,3R,4S,5R)-4-nitro-5-phenyl-3-(thiophen-2-yl)pyrrolidine-2-carboxamido)butylboronic acid] | 79% | 12 nM | 290 nM | 1500 nM | 170 nM | 2.5 µM | 490 nM | 700 nM | 3000 nM | 1.1 µM | 440 nM | 490 nM |  |  |  |  | 
CC(C)C[C@H](NC(=O)[C@@H]1N[C@H](c2ccc3ccccc3c2)[C@@H]([N+](=O)[O-])[C@@H]1c1ccccc1)B(O)O [Example 12, (R)-3-methyl-1-((2R,3R,4S,5R)-5-(naphthalen-2-yl)-4-nitro-3-phenylpyrrolidine-2-carboxamido)butylboronic acid] | 50% | 46 nM | 370 nM |  | 140 nM | 1.7 µM | 1300 nM |  |  |  | 570 nM | 160 nM |  | 970 nM |  |  | 
CC(C)C[C@H](NC(=O)[C@@H]1CCCN1)B(O)O [MG-319, {(R)-3-methyl-1-[(S)-pyrrolidine-2-carboxamido]butyl}boronic acid, reference compound] |  |  | 980 nM |  | 4500 nM | 15 µM | 30000 nM | 24000 nM |  |  | 6200 nM | 4200 nM |  | 33000 nM |  |  | 25%
CC(C)C[C@H](NC(=O)[C@@H]1N[C@H](c2ccccc2)[C@@H]([N+](=O)[O-])[C@@H]1c1ccco1)B(O)O [Example 11, (R)-1-((2R,3R,4S,5R)-3-(furan-2-yl)-4-nitro-5-phenylpyrrolidine-2-carboxamido)-3-methylbutylboronic acid] | 81% | 7.55 nM | 100 nM | 700 nM | 52 nM | 0.66 µM | 280 nM | 280 nM | 580 nM | 0.42 µM | 110 nM | 7 nM |  |  |  |  | 

Continued, values first:

inhibition at 0.05 µM [1] | IC50 [1] | EC50 (143b) | EC50 (BxPC-3; [2]) | EC50 (CCRF-CEM) | EC50 (LoVo) | EC50 (MCF-7) | EC50 (NCI-H358) | EC50 (PANC-1) | EC50 (RWP-1; [3]) | EC50 (SK-BR-3; [4]) | EC50 (SK-HEP-1) | inhibition at 0.1 µM ([1]; Concentration 100 nM) | EC50 (BxPC-3; [5]) | EC50 (RWP-1; Pancreatic cancer RWP-1, Hexosaminidase assay (*)) | EC50 (SK-BR-3; Breast cancer SK-BR-3, Hexosaminidase assay (*)) | inhibition at 0.5 µM ([1]; Concentration 500 nM) | SMILES
 | 39 nM | 5000 nM |  | 670 nM | 6.7 µM | 700 nM | 790 nM |  |  | 1200 nM | 490 nM | 73% | 4600 nM | 24 µM |  |  | CC(C)C[C@H](NC(=O)[C@@H]1N[C@H](c2ccccc2)[C@@H]([N+](=O)[O-])[C@@H]1c1ccccc1)B(O)O [Example 1, (R)-3-methyl-1-((2R,3R,4S,5R)-4-nitro-3,5-diphenylpyrrolidine-2-carboxamido)butylboronic acid]
70% | 17 nM | 1900 nM | 5800 nM | 630 nM | 15 µM | 1900 nM | 3300 nM | 14000 nM | 4.4 µM |  | 1900 nM |  |  |  | 6000 nM |  | CC(C)C[C@H](NC(=O)[C@@H]1N[C@H](c2ccccc2)[C@@H]([N+](=O)[O-])[C@@H]1c1ccc(F)cc1)B(O)O [Example 6, (R)-1-((2R,3R,4S,5R)-3-(4-fluorophenyl)-4-nitro-5-phenylpyrrolidine-2-carboxamido)-3-methylbutylboronic acid]
51% | 46 nM | 2000 nM |  | 330 nM | 3.09 µM | 23000 nM | 2400 nM |  | 3.6 µM | 760 nM | 290 nM |  | 2900 nM |  |  |  | CC(C)C[C@H](NC(=O)[C@H]1N[C@@H](c2ccccc2)[C@@H]([N+](=O)[O-])[C@@H]1c1ccccc1)B(O)O [Example 4, (R)-3-methyl-1-((2S,3R,4S,5S)-4-nitro-3,5-diphenylpyrrolidine-2-carboxamido)butylboronic acid]
